Laboratory results as given in patent US7858786B2, “Pyrimidines and pyrazines useful as modulators of ion channels” (Vertex Pharmaceuticals Incoropated, priority 2005, dated 2010).

test system: neuropathic pain; assay: not given; details: modest efficacy; cited from earlier work

| SMILES | patients in which it works [%] |
| --- | --- |
| NCC1(CC(=O)O)CCCCC1 [Gabapentin] | 60 |

target: T1, NaV1.8 (Homo sapiens, UniProt Q9Y5Y9); assay: Activity against NaV 1.8 channel (NaV inhibition assay); assay type: cell-based; details: not given
T1 sequence (Q9Y5Y9 whole entry, looked up): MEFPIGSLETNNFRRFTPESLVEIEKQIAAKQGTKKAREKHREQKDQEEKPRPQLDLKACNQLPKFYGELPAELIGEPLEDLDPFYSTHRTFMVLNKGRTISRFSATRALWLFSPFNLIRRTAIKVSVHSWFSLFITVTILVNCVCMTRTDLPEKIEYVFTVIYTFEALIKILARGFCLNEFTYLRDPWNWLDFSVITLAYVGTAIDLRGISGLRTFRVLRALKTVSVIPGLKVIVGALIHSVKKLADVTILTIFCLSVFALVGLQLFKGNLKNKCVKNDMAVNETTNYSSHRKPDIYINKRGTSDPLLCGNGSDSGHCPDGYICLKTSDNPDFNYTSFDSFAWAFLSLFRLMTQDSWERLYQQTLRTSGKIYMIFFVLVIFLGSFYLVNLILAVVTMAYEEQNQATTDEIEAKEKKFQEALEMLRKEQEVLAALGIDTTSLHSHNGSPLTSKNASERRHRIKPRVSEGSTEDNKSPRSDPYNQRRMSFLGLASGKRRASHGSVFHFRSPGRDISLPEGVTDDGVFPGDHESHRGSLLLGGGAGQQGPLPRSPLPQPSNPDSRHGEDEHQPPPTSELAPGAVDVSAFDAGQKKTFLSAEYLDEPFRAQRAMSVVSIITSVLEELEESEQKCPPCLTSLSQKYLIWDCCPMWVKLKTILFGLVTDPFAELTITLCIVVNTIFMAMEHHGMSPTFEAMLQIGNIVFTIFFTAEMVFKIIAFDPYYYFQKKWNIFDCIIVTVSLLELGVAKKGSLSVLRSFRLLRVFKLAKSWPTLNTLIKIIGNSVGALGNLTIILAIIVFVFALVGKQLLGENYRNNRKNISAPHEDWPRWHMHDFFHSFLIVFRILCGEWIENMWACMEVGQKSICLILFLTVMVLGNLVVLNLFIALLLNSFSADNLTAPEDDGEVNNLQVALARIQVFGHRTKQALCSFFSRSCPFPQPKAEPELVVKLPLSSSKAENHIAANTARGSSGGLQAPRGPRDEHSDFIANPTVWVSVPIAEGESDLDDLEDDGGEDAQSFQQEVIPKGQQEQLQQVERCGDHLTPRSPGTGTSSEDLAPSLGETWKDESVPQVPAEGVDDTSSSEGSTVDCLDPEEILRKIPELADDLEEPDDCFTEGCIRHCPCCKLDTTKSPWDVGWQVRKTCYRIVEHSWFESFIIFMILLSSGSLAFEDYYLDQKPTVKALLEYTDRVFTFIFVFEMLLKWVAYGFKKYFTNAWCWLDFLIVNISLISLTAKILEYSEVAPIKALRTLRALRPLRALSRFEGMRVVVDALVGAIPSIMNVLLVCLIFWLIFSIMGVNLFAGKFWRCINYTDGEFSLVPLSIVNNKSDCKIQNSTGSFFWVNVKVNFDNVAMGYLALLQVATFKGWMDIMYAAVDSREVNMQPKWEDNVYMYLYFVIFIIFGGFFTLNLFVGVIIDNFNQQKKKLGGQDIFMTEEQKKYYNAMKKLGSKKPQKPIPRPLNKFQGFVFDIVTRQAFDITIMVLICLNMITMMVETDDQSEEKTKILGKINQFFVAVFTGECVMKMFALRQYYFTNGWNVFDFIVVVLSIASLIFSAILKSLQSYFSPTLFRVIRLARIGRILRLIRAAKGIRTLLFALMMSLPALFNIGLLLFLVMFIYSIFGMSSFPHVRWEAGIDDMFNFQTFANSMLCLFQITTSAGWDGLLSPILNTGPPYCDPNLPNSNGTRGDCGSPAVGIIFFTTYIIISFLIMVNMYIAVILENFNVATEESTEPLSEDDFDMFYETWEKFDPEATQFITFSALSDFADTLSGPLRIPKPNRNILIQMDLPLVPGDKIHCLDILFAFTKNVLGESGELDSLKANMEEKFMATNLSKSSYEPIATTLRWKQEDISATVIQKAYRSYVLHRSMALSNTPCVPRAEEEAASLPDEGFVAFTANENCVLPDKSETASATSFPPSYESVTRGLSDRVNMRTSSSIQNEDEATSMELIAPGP
Experimental: Compounds of the invention are useful as antagonists of voltage-gated sodium ion channels. Antagonist properties of test compounds were assessed as follows. Cells expressing the NaV of interest were placed into microtiter plates. After an incubation period, the cells were stained with fluorescent dyes sensitive to the transmembrane potential. The test compounds were added to the microtiter plate. The cells were stimulated with either a chemical or electrical means to evoke a NaV dependent membrane potential change from unblocked channels, which was detected and measured with trans-membrane potential-sensitive dyes. Antagonists were detected as a decreased membrane potential response to the stimulus. The optical membrane potential assay utilized voltage-sensitive FRET sensors described by Gonzalez and Tsien (See, Gonzalez, J. E. and R. Y. Tsien (1995) “Voltage sensing by fluorescence resonance energy transfer in single cells” Biophys J 69(4):1272-80, and Gonzalez, J. E. and R. Y. Tsien (1997) “Improved indicators of cell membrane potential that use fluorescence resonance energy transfer” Chem Biol 4(4):269-77) in combination with instrumentation for measuring fluorescence changes such as the Voltage/Ion Probe Reader (VIPRO®) (See, Gonzalez, J. E., K. Oades, et al. (1999) “Cell-based assays and instrumentation for screening ion-channel targets” Drug Discov Today 4(9):431-439).
24 hours before the assay on VIPR, CHO cells endogenously expressing a NaV1.2 type voltage-gated NaV are seeded in 96-well poly-lysine coated plates at 60,000 cells per well. Other subtypes are performed in an analogous mode in a cell line expressing the NaV of interest.
The following is an example of how NaV1.3 inhibition activity is measured using the optical membrane potential method #2. Other subtypes are performed in an analogous mode in a cell line expressing the NaV of interest.
HEK293 cells stably expressing NaV1.3 are plated into 96-well microtiter plates. After an appropriate incubation period, the cells are stained with the voltage sensitive dyes CC2-DMPE/DiSBAC2(3) as follows.
Patch clamp electrophysiology was used to assess the efficacy and selectivity of sodium channel blockers in dorsal root ganglion neurons. Rat neurons were isolated from the dorsal root ganglions and maintained in culture for 2 to 10 days in the presence of NGF (50 ng/ml) (culture media consisted of NeurobasalA supplemented with B27, glutamine and antibiotics). Small diameter neurons (nociceptors, 8-12 μm in diameter) have been visually identified and probed with fine tip glass electrodes connected to an amplifier (Axon Instruments). The “voltage clamp” mode has been used to assess the compound's IC50 holding the cells at −60 mV. In addition, the “current clamp” mode has been employed to test the efficacy of the compounds in blocking action potential generation in response to current injections. The results of these experiments have contributed to the definition of the efficacy profile of the compounds.
TTX-resistant sodium currents were recorded from DRG somata using the whole-cell variation of the patch clamp technique. Recordings were made at room temperature (˜22° C.) with thick walled borosilicate glass electrodes (WPI; resistance 3-4 MΩ) using an Axopatch 200B amplifier (Axon Instruments). After establishing the whole-cell configuration, approximately 15 minutes were allowed for the pipette solution to equilibrate within the cell before beginning recording. Currents were lowpass filtered between 2-5 kHz and digitally sampled at 10 kHz. Series resistance was compensated 60-70% and was monitored continuously throughout the experiment. The liquid junction potential (−7 mV) between the intracellular pipette solution and the external recording solution was not accounted for in the data analysis. Test solutions were applied to the cells with a gravity driven fast perfusion system (SF-77; Warner Instruments). […]

| SMILES | IC50 [µM] |
| --- | --- |
| CC(C)COC(=O)N1CCN(c2cncc(-c3ccccc3O)n2)CC1 [Compound 33, 4-[6-(2-hydroxyphenyl)pyrazin-2-yl]piperazine-1-carboxylic acid isobutyl ester] | < 10 |
| CC(C)COC(=O)N1CCN(c2ccnc(-c3ccccc3O)n2)CC1 [Compound 34, 4-[2-(2-hydroxyphenyl)pyrimidin-4-yl]piperazine-1-carboxylic acid isobutyl ester] | > 15 |
| CC(C)COC(=O)NC1CCN(c2ccnc(-c3ccccc3O)n2)CC1 [Compound 35, [1-[2-(2-hydroxyphenyl)pyrimidin-4-yl]-4-piperidyl]aminoformic acid isobutyl ester] | 10 to 15 |
| CC(C)COC(=O)N[C@H]1CCN(c2cncc(-c3ccccc3C(F)F)n2)C1 [Compound 36, [1-[6-[2-(difluoromethyl)phenyl]pyrazin-2-yl]pyrrolidin-3-yl]aminoformic acid isobutyl ester] | < 10 |
| CC(C)C[C@@H](O)C(=O)N1CCN(c2cncc(-c3ccccc3O)n2)CC1 [Compound 38, 2-hydroxy-1-[4-[6-(2-hydroxyphenyl)pyrazin-2-yl]piperazin-1-yl]-4-methyl-pentan-1-one] | > 15 |
| CC(C)C[C@@H](O)C(=O)N1CCN(c2nccc(-c3ccccc3O)n2)CC1 [Compound 39, 2-hydroxy-1-[4-[4-(2-hydroxyphenyl)pyrimidin-2-yl]piperazin-1-yl]-4-methyl-pentan-1-one] | < 10 |
| CC(C)(C)OC(=O)N[C@@H]1CCN(c2cncc(-c3ccccc3O)n2)C1 [Compound 40, [1-[6-(2-hydroxyphenyl)pyrazin-2-yl]pyrrolidin-3-yl]aminoformic acid tert-butyl ester] | > 15 |
| CC(C)OC(=O)N[C@@H]1CCN(c2cncc(-c3ccccc3O)n2)C1 [Compound 41, [1-[6-(2-hydroxyphenyl)pyrazin-2-yl]pyrrolidin-3-yl]aminoformic acid isopropyl ester] | > 15 |
| CC(C)C[C@@H](O)C(=O)N1CCN(c2ccnc(-c3ccccc3F)n2)CC1 [Compound 42, 1-[4-[2-(2-fluorophenyl)pyrimidin-4-yl]piperazin-1-yl]-2-hydroxy-4-methyl-pentan-1-one] | > 15 |
| CC(C)(C)OC(=O)N[C@@H]1CCN(c2cncc(-c3ccccc3C(F)F)n2)C1 [Compound 43, [1-[6-[2-(difluoromethyl)phenyl]pyrazin-2-yl]pyrrolidin-3-yl]aminoformic acid tert-butyl ester] | 10 to 15 |
| CC(C)C[C@@H](O)C(=O)N1CCN(c2cc(-c3ccccc3F)ncn2)CC1 [Compound 44, 1-[4-[6-(2-fluorophenyl)pyrimidin-4-yl]piperazin-1-yl]-2-hydroxy-4-methyl-pentan-1-one] | > 15 |
| CC(C)COC(=O)NC1CCN(c2cncc(-c3ccccc3F)n2)CC1 [Compound 45, [1-[6-(2-fluorophenyl)pyrazin-2-yl]-4-piperidyl]aminoformic acid isobutyl ester] | < 10 |
| CC(C)COC(=O)N1CCN(c2cncc(-c3ccccc3F)n2)CC1 [Compound 46, 4-[6-(2-fluorophenyl)pyrazin-2-yl]piperazine-1-carboxylic acid isobutyl ester] | > 15 |
| COCCOC(=O)NC1CCN(c2cncc(-c3ccccc3O)n2)CC1 [Compound 47, [1-[6-(2-hydroxyphenyl)pyrazin-2-yl]-4-piperidyl]aminoformic acid 2-methoxyethyl ester] | > 15 |
| CC(C)COC(=O)NC1CCN(c2cncc(-c3ccccc3C(F)F)n2)CC1 [Compound 48, [1-[6-[2-(difluoromethyl)phenyl]pyrazin-2-yl]-4-piperidyl]aminoformic acid isobutyl ester] | < 10 |
| CC(C)C[C@@H](O)C(=O)N1CCN(c2cc(-c3ccccc3C(F)F)ncn2)CC1 [Compound 49, 1-[4-[6-[2-(difluoromethyl)phenyl]pyrimidin-4-yl]piperazin-1-yl]-2-hydroxy-4-methyl-pentan-1-one] | > 15 |
| CC(C)(C)OC(=O)NC1CCN(c2cncc(-c3ccccc3O)n2)CC1 [Compound 52, [1-[6-(2-hydroxyphenyl)pyrazin-2-yl]-4-piperidyl]aminoformic acid tert-butyl ester] | < 10 |

target: T1, NaV1.8; assay: not given; details: read-out: TTX IC50; cited from earlier work

| SMILES | IC50 [µM] |
| --- | --- |
| NC1=N[C@H](O)[C@H]2[C@H]3O[C@]4(O)O[C@@H]([C@@H](O)[C@@]2(N1)[C@@H]4O)[C@]3(O)CO [TTX, tetrodotoxin] | > 50 |
